In ChEMBL document CHEMBL4145506, “Synthesis and biological evaluation of 4,6-diphenyl-2-(1H-pyrrol-1-yl)nicotinonitrile analogues of crolibulin and combretastatin A-4” (Eur J Med Chem, 2018):
Activity calls are given as the source filed them. No cut-off for these calls is given here.

Assays:
HT-29 [1] = assay: cells; conditions: Homo sapiens, HT-29, 72 h
MKN-45 = assay: cells; conditions: Homo sapiens, MKN-45, 72 h
Description: Antiproliferative activity against human MKN45 cells after 72 hrs by MTT assay

NCI-H460 [2] = assay: Antiproliferative activity against human H460 cells after 72 hrs by MTT assay; format: functional, cell-based; conditions: NCI-H460, 72 h
SMMC-7721 = assay: Antiproliferative activity against human SMMC7721 cells after 72 hrs by MTT assay; format: functional, cell-based; conditions: SMMC-7721, 72 h
A549 [3] = assay: cells; conditions: Homo sapiens, A549, 72 h
Description: Antiproliferative activity against human A549 cells after 72 hrs by MTT assay

NCI-H460 [4] = assay: Potency index, ratio of CA-4 IC50 to compound IC50 for human H460 cells; format: functional
A549 [5] = assay: Potency index, ratio of crolibulin IC50 to compound IC50 for human A549 cells; format: functional
A549 [6] = assay: Induction of microtubule depolymerization in human A549 cells assessed as scattered short microtubule fragment formation in cytoplasm at 30 nM after 24 hrs by DAPI staining based immunofluorescence microscopic method; format: cell-based
A549 [7] = assay: Potency index, ratio of CA-4 IC50 to compound IC50 for human A549 cells; format: functional
HT-29 [8] = assay: Potency index, ratio of crolibulin IC50 to compound IC50 for human HT-29 cells; format: functional

| Structure (SMILES) | IC50 (HT-29 [1]) [µM] | IC50 (MKN-45) [µM] | IC50 (NCI-H460 [2]) [µM] | IC50 (SMMC-7721) [µM] | IC50 (A549 [3]) [µM] | Ratio IC50 (NCI-H460 [4]) | Ratio IC50 (A549 [5]) | Activity (A549 [6]) | Ratio IC50 (A549 [7]) | Ratio IC50 (HT-29 [8]) |
| --- | --- | --- | --- | --- | --- | --- | --- | --- | --- | --- |
| COc1cc(-c2cc(-c3ccc(F)cc3F)nc(-n3cccc3CN3CCC(C)CC3)c2C#N)cc(OC)c1OC | 8.76 | 5.91 | 5.3 | 7.73 | 8.07 |  |  |  |  |  |
| COc1ccc(-c2cc(-c3ccc(F)cc3)nc(-n3cccc3CN3CCC(C)CC3)c2C#N)c(OC)c1OC | 1.37 | 46.2 | 3.88 | 47.4 | 6.95 |  |  |  |  |  |
| COc1cc([C@H]2C(C#N)=C(N)Oc3c2ccc(N)c3N)cc(Br)c1OC [CROLIBULIN] | 0.55 | 0.17 | 0.03 |  | 0.39 |  |  |  |  |  |
| CNCc1cccn1-c1nc(-c2ccc(F)cc2)cc(-c2cc(OC)c(OC)c(OC)c2)c1C#N | 0.08 | 2.22 | 0.06 | 2.95 | 0.03 | 1.3 - 15 | 6.9 - 13 | Active | 1.3 - 15 | 6.9 - 13 |
| CCNCc1cccn1-c1nc(-c2ccc(F)cc2)cc(-c2cc(OC)c(OC)c(OC)c2)c1C#N | 1.21 | 42.2 | 1.54 | 13.1 | 16.9 |  |  |  |  |  |
| COc1cc(-c2cc(-c3ccc(F)cc3)nc(-n3cccc3CN3CCOCC3)c2C#N)cc(OC)c1OC |  |  | 5.56 | 18.8 |  |  |  |  |  |  |
| CNCc1cccn1-c1nc(-c2ccc(F)cc2F)cc(-c2cc(OC)c(OC)c(OC)c2)c1C#N | 0.95 | 6.29 | 2.98 | 33.4 | 9.54 |  |  |  |  |  |
| COc1cc(-c2cc(-c3ccc(F)cc3)nc(-n3cccc3)c2C#N)cc(OC)c1OC | 9.34 | 58.5 | 21.3 | 61.1 | 44.1 |  |  |  |  |  |
| COc1cc(-c2cc(-c3ccc(F)cc3)nc(-n3cccc3CN3CCC(C)CC3)c2C#N)cc(OC)c1OC |  |  | 0.07 | 5.87 |  |  |  |  |  |  |
| COc1cc(-c2cc(-c3ccc(F)cc3)nc(-n3cccc3CN(C)C)c2C#N)cc(OC)c1OC | 0.1 | 10.4 | 0.31 | 20.9 | 0.17 |  |  |  |  |  |
| COc1cc(-c2cc(-c3ccc(F)cc3)nc(-n3cccc3CN3CCCC3)c2C#N)cc(OC)c1OC | 1.2 | 35.8 | 8.31 | 36.8 | 11 |  |  |  |  |  |
| CNCc1cccn1-c1nc(-c2ccc(F)cc2)cc(-c2ccc(OC)c(OC)c2OC)c1C#N | 0.06 | 38.3 | 0.26 | 12.1 | 14.4 |  |  |  |  |  |
| COc1cc(-c2cc(-c3ccc(F)cc3)nc(-n3cccc3CNC(C)C)c2C#N)cc(OC)c1OC | 0.1 | 38.5 | 0.24 | 34.9 | 8.26 |  |  |  |  |  |
| COc1ccc(-c2cc(-c3ccc(F)cc3)nc(-n3cccc3CN(C)C)c2C#N)c(OC)c1OC | 3.71 | 45.3 | 5.77 | 2.36 | 12.6 |  |  |  |  |  |
| COc1cc(-c2cc(-c3ccc(F)cc3F)nc(-n3cccc3CNC(C)C)c2C#N)cc(OC)c1OC | 2.78 | 57.5 | 4.37 | 21.9 | 16 |  |  |  |  |  |
| COc1ccc(-c2cc(-c3ccc(F)cc3)nc(-n3cccc3CN3CCN(C)CC3)c2C#N)c(OC)c1OC | 0.06 | 10.1 | 0.11 | 18.2 | 4.55 |  |  |  |  |  |
| COc1cc(-c2cc(-c3ccc(F)cc3F)nc(-n3cccc3CN3CCOCC3)c2C#N)cc(OC)c1OC | 6.34 | 39.7 | 12.5 | 40.8 | 11 |  |  |  |  |  |
| COc1cc(-c2cc(-c3ccc(F)cc3)nc(-n3cccc3CN3CCN(C)CC3)c2C#N)cc(OC)c1OC |  |  | 0.05 | 4.35 |  |  |  |  |  |  |
| CCNCc1cccn1-c1nc(-c2ccc(F)cc2F)cc(-c2cc(OC)c(OC)c(OC)c2)c1C#N | 3.3 | 13.2 | 2.88 | 4.2 | 4.12 |  |  |  |  |  |
| COc1cc(-c2cc(-c3ccc(F)cc3F)nc(-n3cccc3CN(C)C)c2C#N)cc(OC)c1OC | 2.51 | 7.28 | 6.18 | 11.7 | 10.7 |  |  |  |  |  |
| COc1ccc(/C=C\c2cc(OC)c(OC)c(OC)c2)cc1O [COMBRETASTATIN A4] | 0.06 | 0.21 | 0.08 | 1.72 | 0.45 |  |  | Active |  |  |
| COc1cc(-c2cc(-c3ccc(F)cc3F)nc(-n3cccc3CN3CCCC3)c2C#N)cc(OC)c1OC | 5.86 | 43.1 | 4.29 | 40.3 | 10.8 |  |  |  |  |  |
| COc1cc(-c2cc(-c3ccc(F)cc3F)nc(-n3cccc3CN3CCN(C)CC3)c2C#N)cc(OC)c1OC | 1.77 | 39.8 | 4.53 | 33.9 | 4.72 |  |  |  |  |  |
